{"source": "paper PMC2957182", "about": "(Molecular and cellular endocrinology, 2010)", "key": {"ovaries": {"tested_on": "ovaries", "conditions": "bovine insulin; ref Riehle and Brown, 1999; cited from earlier work"}, "Akt": {"tested_on": "Akt", "conditions": "HNMPA-(AM3) 500 μM, ILP3 10 pmol or ILP4 20 pmol, 2 h, immunoblot"}}, "data": [{"compound": "bovine insulin: bovine insulin", "values": [{"measurement": "Ecdysteroid production by ovaries", "setting": "ovaries", "result": "stimulates ecdysteroid production"}]}, {"compound": "CC(=O)OCOC(c1ccc2ccccc2c1)P(=O)(OCOC(C)=O)OCOC(C)=O", "note": "(centres unmarked) [HNMPA-(AM3)]", "values": [{"measurement": "Akt phosphorylation in ovaries with ILPs plus HNMPA-(AM3)", "setting": "Akt", "result": "no change in phosphorylation"}]}]}
